Assay results reported in US20250042903A1, “TRIAZINE INHIBITORS OF CYCLIN-DEPENDENT KINASES” (H. LEE MOFFITT CANCER CENTER AND RESEARCH INSTITUTE, INC., priority 2021, published 2025).

Legend:
[1] = tested on: MDA-MB-231; test: Antiproliferative activity in MDA-MB-231; format: cell-based; conditions: Homo sapiens
Text: (§1) The inhibitory and antiproliferative activities of selected compounds disclosed herein against cyclin-dependent kinase 12 were investigated.

[2] = target: cyclin-dependent kinase 12 (Homo sapiens (Human), UniProt Q9NYV4); test: Inhibition of cyclin-dependent kinase 12; format: biochemical; conditions: read-out: CDK12 inhibition, IC50
Text: as §1

Sequence of cyclin-dependent kinase 12 (Q9NYV4 whole entry): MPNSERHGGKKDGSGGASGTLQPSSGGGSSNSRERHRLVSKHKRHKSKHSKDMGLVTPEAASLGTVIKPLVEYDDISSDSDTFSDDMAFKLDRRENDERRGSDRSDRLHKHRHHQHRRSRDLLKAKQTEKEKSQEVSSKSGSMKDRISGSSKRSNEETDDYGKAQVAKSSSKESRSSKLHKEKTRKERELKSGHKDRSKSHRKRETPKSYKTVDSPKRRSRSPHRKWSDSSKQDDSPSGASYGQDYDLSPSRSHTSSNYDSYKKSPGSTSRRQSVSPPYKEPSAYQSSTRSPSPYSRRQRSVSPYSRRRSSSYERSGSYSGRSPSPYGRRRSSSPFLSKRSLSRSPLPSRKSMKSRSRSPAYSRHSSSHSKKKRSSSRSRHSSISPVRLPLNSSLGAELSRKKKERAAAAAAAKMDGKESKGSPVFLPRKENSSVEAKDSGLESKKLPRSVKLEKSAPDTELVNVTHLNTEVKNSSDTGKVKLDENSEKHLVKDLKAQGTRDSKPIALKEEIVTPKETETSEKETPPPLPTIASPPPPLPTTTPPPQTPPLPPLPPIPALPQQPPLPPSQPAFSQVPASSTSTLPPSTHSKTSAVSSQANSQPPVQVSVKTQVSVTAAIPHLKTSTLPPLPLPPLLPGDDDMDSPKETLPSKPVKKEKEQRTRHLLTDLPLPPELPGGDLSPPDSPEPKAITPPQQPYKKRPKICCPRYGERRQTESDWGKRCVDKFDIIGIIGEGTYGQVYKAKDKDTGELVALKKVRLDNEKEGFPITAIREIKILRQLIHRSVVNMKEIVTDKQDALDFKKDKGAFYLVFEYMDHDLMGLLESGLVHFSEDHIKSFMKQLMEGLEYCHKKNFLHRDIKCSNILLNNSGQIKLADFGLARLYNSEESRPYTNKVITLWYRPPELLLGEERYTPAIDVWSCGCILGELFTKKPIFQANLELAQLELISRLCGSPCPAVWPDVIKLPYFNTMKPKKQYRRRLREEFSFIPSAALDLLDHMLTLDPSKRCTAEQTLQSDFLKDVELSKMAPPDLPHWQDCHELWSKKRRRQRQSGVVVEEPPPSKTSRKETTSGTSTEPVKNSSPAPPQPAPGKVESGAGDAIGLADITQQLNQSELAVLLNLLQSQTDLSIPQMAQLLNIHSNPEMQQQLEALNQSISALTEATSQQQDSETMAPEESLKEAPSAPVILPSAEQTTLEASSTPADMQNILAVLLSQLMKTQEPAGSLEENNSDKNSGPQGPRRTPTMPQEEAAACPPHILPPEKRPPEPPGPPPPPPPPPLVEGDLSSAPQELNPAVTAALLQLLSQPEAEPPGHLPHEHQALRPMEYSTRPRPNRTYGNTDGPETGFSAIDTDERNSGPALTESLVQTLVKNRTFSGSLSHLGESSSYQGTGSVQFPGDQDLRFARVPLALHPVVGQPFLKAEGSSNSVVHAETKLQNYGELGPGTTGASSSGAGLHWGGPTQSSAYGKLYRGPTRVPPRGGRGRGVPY
Sequence of cyclin-dependent kinase 12 (O75909 whole entry partner): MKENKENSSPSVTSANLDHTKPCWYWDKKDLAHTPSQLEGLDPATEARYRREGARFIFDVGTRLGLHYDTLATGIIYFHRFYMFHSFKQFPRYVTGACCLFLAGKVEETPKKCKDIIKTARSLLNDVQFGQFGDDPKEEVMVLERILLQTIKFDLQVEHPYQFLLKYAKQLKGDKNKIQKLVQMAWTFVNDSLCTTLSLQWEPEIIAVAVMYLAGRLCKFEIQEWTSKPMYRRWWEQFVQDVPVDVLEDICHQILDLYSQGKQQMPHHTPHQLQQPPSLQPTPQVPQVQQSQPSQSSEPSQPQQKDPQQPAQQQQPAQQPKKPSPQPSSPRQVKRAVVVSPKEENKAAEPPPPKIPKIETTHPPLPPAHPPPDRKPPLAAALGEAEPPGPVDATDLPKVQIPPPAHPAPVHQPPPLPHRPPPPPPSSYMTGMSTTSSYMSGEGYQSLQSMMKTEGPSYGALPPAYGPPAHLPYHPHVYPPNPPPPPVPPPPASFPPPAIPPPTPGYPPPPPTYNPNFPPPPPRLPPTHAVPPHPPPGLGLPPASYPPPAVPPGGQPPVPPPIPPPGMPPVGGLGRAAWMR

Row | Structure (SMILES) | GI50 [1] [µM] | IC50 [2] [µM]
1 | CN1CCN(c2nc(NCc3nc4cccc(Cl)c4[nH]3)n3ncc(-c4ccsc4)c3n2)CC1 [Compound 10, N-((7-chloro-1H-benzo[d]imidazol-2-yl)methyl)-2-(4-methylpiperazin-1-yl)-8-(thiophen-3-yl)pyrazolo[1,5-a][1,3,5]triazin-4-amine] | 0.835 | 1.56
2 | Fc1cccc2nc(CNc3nc(N4CCOCC4)nc4c(-c5cnn(C(F)F)c5)cnn34)[nH]c12 [Compound 8, 8-(1-(difluoromethyl)-1H-pyrazol-4-yl)-N-((7-fluoro-1H-benzo[d]imidazol-2-yl)methyl)-2-morpholinopyrazolo[1,5-a][1,3,5]triazin-4-amine] | 0.044 | 0.044
3 | FC(F)n1cc(-c2cnn3c(NCc4nc5cc(Cl)c(Cl)cc5[nH]4)nc(N4CCC(F)(F)CC4)nc23)cn1 [Compound 3, N-((5,6-dichloro-1H-benzo[d]imidazol-2-yl)methyl)-8-(1-(difluoromethyl)-1H-pyrazol-4-yl)-2-(4,4-difluoropiperidin-1-yl)pyrazolo[1,5-a][1,3,5]triazin-4-amine] | 0.71 | > 10
4 | FC(F)n1cc(-c2cnn3c(NCc4nc5cccc(Cl)c5[nH]4)nc(N4CCC(F)(F)CC4)nc23)cn1 [Compound 7, N-((7-chloro-1H-benzo[d]imidazol-2-yl)methyl)-8-(1-(difluoromethyl)-1H-pyrazol-4-yl)-2-(4,4-difluoropiperidin-1-yl)pyrazolo[1,5-a][1,3,5]triazin-4-amine] | 0.98 | 0.552
5 | Cn1cc(-c2cnn3c(NCc4nc5cccc(Cl)c5[nH]4)nc(N4CCC(F)(F)CC4)nc23)cn1 [Compound 13, N-((7-chloro-1H-benzo[d]imidazol-2-yl)methyl)-2-(4,4-difluoropiperidin-1-yl)-8-(1-methyl-1H-pyrazol-4-yl)pyrazolo[1,5-a][1,3,5]triazin-4-amine] | 3.77 | 1.28
6 | Cn1cc(-c2cnn3c(NCc4nc5cc(Cl)c(Cl)cc5[nH]4)nc(N4CCOCC4)nc23)cn1 [Compound 1, N-((5,6-dichloro-1H-benzo[d]imidazol-2-yl)methyl)-8-(1-methyl-1H-pyrazol-4-yl)-2-morpholinopyrazolo[1,5-a][1,3,5]triazin-4-amine] | 0.419 | 0.554
7 | FC(F)n1cc(-c2cnn3c(NCc4nc5cccc(Cl)c5[nH]4)nc(N4CCOCC4)nc23)cn1 [Compound 6, N-((7-chloro-1H-benzo[d]imidazol-2-yl)methyl)-8-(1-(difluoromethyl)-1H-pyrazol-4-yl)-2-morpholinopyrazolo[1,5-a][1,3,5]triazin-4-amine] | 0.062 | 0.065
8 | OC[C@@H]1COCCN1c1nc(NCc2nc3cc(Cl)c(Cl)cc3[nH]2)n2ncc(-c3cnn(C(F)F)c3)c2n1 [Compound 4, (R)-(4-(4-(((5,6-dichloro-1H-benzo[d]imidazol-2-yl)methyl)amino)-8-(1-(difluoromethyl)-1H-pyrazol-4-yl)pyrazolo[1,5-a][1,3,5]triazin-2-yl)morpholin-3-yl)methanol] | 0.384 | 4.05
9 | Cn1cc(-c2cnn3c(NCc4nc5cccc(Cl)c5[nH]4)nc(N4CCOCC4)nc23)cn1 [Compound 12, N-((7-chloro-1H-benzo[d]imidazol-2-yl)methyl)-8-(1-methyl-1H-pyrazol-4-yl)-2-morpholinopyrazolo[1,5-a][1,3,5]triazin-4-amine] | 1.11 | 0.289

The remaining lines, values ahead:

Row | GI50 [1] [µM] | IC50 [2] [µM] | Structure (SMILES)
10 | 0.061 | 0.196 | Fc1cc2nc(CNc3nc(N4CCOCC4)nc4c(-c5ccsc5)cnn34)[nH]c2cc1F [Compound 11, N-((5,6-difluoro-1H-benzo[d]imidazol-2-yl)methyl)-2-morpholino-8-(thiophen-3-yl)pyrazolo[1,5-a][1,3,5]triazin-4-amine]
11 | 0.764 | 2.42 | Clc1cc2nc(CNc3nc(N4CCOCC4)nc4c(-c5ccsc5)cnn34)[nH]c2cc1Cl [Compound 5, N-((5,6-dichloro-1H-benzo[d]imidazol-2-yl)methyl)-2-morpholino-8-(thiophen-3-yl)pyrazolo[1,5-a][1,3,5]triazin-4-amine]
12 | 0.15 | 0.262 | FC(F)n1cc(-c2cnn3c(NCc4nc5cc(Cl)c(Cl)cc5[nH]4)nc(N4CCOCC4)nc23)cn1 [Compound 2, N-((5,6-dichloro-1H-benzo[d]imidazol-2-yl)methyl)-8-(1-(difluoromethyl)-1H-pyrazol-4-yl)-2-morpholinopyrazolo[1,5-a][1,3,5]triazin-4-amine]
13 | 0.227 | 0.377 | Clc1cccc2nc(CNc3nc(N4CCOCC4)nc4c(-c5ccsc5)cnn34)[nH]c12 [Compound 9, N-((7-chloro-1H-benzo[d]imidazol-2-yl)methyl)-2-morpholino-8-(thiophen-3-yl)pyrazolo[1,5-a][1,3,5]triazin-4-amine]
14 | 1.24 | 1.35 | Cn1cc(-c2cnn3c(NCc4nc5cc(F)c(F)cc5[nH]4)nc(N4CCOCC4)nc23)cn1 [Compound 14, N-((5,6-difluoro-1H-benzo[d]imidazol-2-yl)methyl)-8-(1-methyl-1H-pyrazol-4-yl)-2-morpholinopyrazolo[1,5-a][1,3,5]triazin-4-amine]
